Measurements from ChEMBL document CHEMBL1124928, “Inhibition of monoamine oxidases A and B by simple isoquinoline alkaloids: racemic and optically active 1,2,3,4-tetrahydro-, 3,4-dihydro-, and fully aromatic isoquinolines” (J Med Chem, 1990).
Structures can show the parent of a compound that is named as a salt.

Columns and labels:
[1] = target: T1, Amine oxidase [flavin-containing] B (Homo sapiens, UniProt P27338); experiment: Compounds were tested for inhibition against human liver Monoamine oxidase B (competitive inhibition was observed)
T1 sequence (P27338 whole entry): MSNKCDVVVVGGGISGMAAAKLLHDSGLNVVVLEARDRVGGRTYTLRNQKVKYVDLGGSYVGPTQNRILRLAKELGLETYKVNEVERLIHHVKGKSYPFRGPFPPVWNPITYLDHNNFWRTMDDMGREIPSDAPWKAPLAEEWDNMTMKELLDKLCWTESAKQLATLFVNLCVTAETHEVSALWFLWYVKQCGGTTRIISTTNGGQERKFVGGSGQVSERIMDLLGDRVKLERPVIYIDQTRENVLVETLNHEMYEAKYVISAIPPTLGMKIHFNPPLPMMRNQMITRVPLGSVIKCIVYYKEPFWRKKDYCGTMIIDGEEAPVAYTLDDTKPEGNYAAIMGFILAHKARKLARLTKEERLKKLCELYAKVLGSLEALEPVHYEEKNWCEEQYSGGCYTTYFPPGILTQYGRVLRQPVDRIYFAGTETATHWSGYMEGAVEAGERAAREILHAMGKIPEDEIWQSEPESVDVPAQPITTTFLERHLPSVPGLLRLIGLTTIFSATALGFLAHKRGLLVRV

[2] = target: T2, Amine oxidase [flavin-containing] A (Homo sapiens, UniProt P21397);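 also: enzyme source: monoamine oxidase A taken from human placenta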
T2 sequence (P21397 whole entry): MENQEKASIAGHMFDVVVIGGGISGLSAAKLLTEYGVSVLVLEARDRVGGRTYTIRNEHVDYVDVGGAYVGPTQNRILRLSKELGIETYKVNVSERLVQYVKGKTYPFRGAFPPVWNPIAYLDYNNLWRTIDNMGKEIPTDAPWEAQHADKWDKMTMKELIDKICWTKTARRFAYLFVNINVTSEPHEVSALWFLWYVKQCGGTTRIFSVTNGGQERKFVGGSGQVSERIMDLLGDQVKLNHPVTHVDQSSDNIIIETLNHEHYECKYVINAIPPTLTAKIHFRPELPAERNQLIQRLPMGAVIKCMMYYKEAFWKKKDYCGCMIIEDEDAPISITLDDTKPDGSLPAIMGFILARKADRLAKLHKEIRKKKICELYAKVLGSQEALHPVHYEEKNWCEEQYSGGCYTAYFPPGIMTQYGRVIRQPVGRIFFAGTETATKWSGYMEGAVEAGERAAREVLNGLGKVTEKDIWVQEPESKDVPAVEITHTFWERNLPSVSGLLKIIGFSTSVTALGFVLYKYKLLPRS

[3] = target: T2, Amine oxidase [flavin-containing] A; experiment: Compounds were tested for inhibition against human placental Monoamine oxidase A (mixed inhibition was observed)
[4] = target: T1, Amine oxidase [flavin-containing] B; experiment: Compounds were tested for inhibition against human liver Monoamine oxidase B (mixed inhibition was observed)
[5] = target: T2, Amine oxidase [flavin-containing] A; experiment: Compound was tested for inhibition against human placental Monoamine oxidase A (competitive inhibition was observed)

In the case of `COc1c2c(c(OC)c(OC)c1OC)CN(C)CC2` [WEBERINE], the Ki [1] is reported as 1900 µM and the Ki [2] is reported as 260 µM.

With `COc1cc2c(cc1O)C(C)NCC2` (racemic) the Ki [2] was 34 µM.

With `COc1cc2c(c(OC)c1OC)C(C)=NCC2` the Ki [2] was 2 µM.

Compound `COc1cc2c(cc1O)CCN[C@@H]2C` has a Ki [2] of 77 µM.

For `Cc1nccc2cc(O)c(O)cc12`, the Ki [3] was 130 µM.

`COc1c2c(c(OC)c(OC)c1OC)C(C)NCC2` (racemic) showed a Ki [2] of 1000 µM.

With `COc1cc2ccncc2c(OC)c1OC` the Ki [2] was 41 µM.

`COc1cc2c(cc1OC)C(C)=NCC2` gave a Ki [2] of 4 µM.

In the case of `C[C@@H]1NCCc2cc(O)c(O)cc21` [SALSOLINOL HYDROBROMIDE], the Ki [2] is reported as 284 µM.

In the case of `CC1c2cc(O)c(O)cc2CCN1C` (racemic), the Ki [2] is reported as 36 µM.

`COc1cc2c(cc1O)C(C)=NCC2` was tested, and the Ki [2] was 13 µM.

`COc1cc2c(C)nccc2cc1O` [listing 1 of 2 here] showed a Ki [2] of 130 µM.

With `COc1cc2c(c(OC)c1OC)C(C)N(C)CC2` (racemic) the Ki [2] was 160 µM.

`COc1cc2c(cc1O)CCN=C2C` showed a Ki [2] of 80 µM.

In the case of `COc1cc2c(cc1OC)[C@H](C)N(C)CC2` [CARNEGINE HYDROCHLORIDE], the Ki [4] is reported as 1.6 mM and the Ki [2] is reported as 102 µM.

In the case of `COc1cc2c(cc1OC)[C@H](C)NCC2`, the Ki [2] is reported as 186 µM.

`CN1CCc2ccccc2C1` showed a Ki [1] of 1 µM.

With `COc1cc2c(cc1O)CCN[C@H]2C` [SALSOLINE HYDROCHLORIDE] the Ki [2] was 160 µM.

`COc1ccc2c(c1)CC[N+](C)=C2` was tested, and the Ki [1] was 15 µM and the Ki [2] was 4 µM.

With `C[C@H]1NCCc2cc(O)c(O)cc21` the Ki [2] was 31 µM.

In the case of `COc1c2c(c(OC)c(OC)c1OC)CNCC2` [NORWEBERINE], the Ki [4] is reported as 0.58 mM and the Ki [3] is reported as 700 µM.

In the case of `COc1cc2c(cc1O)CCN(C)[C@H]2C` (racemic), the Ki [1] is reported as 2300 µM and the Ki [3] is reported as 70 µM.

With `COc1cc2c(C)nccc2cc1O` [listing 2 of 2 here] the Ki [2] was 150 µM.

`COc1cc2c(cc1OC)CC[N+](C)=C2` showed a Ki [2] of 6 µM.

`COc1cc2c(cc1OC)[C@@H](C)N(C)CC2` gave a Ki [2] of 2 µM.

For `COc1c(OC)c(OC)c2c(C)nccc2c1OC`, the Ki [2] was 17 µM.

For `CN1CCc2cc(O)c(O)cc2C1`, the Ki [2] was 1300 µM.

Work on `COc1cc2c(cc1OC)CN(C)CC2` yielded a Ki [5] of 27 µM and a Ki [1] of 29 µM.

Compound `COc1cc2c(c(OC)c1OC)C(C)NCC2` (racemic) has a Ki [2] of 170 µM.

Work on `COc1c2c(c(OC)c(OC)c1OC)C(C)=NCC2` yielded a Ki [2] of 10 µM.

In the case of `COc1cc2c(cc1OC)[C@@H](C)NCC2`, the Ki [2] is reported as 6 µM.

`C[N+]1=Cc2ccccc2CC1` showed a Ki [1] of 76 µM and a Ki [2] of 130 µM.
